Literature values, collected in patent US6921495B2, “Environmentally compatible defrosting and antifreeze agents for aeroplanes” (Clariant GmbH, priority 2001, dated 2005).
Like-named read-outs stand apart in the source and are kept apart here.

What was measured:
[1] = system: rat
[2] = system: Brachydanio rerio

c1ccc2[nH]nnc2c1 [benzotriazole]
LD50 oral rat ([1]; in vivo, po): 560 mg/kg | LCO in Brachydanio rerio ([2]; Brachydanio rerio): 100 mg/L

Tolyltriazole
LD50 oral rat ([1]; oral): 675 mg/kg | LCO in Brachydanio rerio ([2]; in vivo): 42.2 mg/L
